US20250195521A1 (Revolution Medicines, Inc., priority 2020, published 2025)
pIC50: −log10 of the molar value.

Experiments:
KRAS G12C = KRAS G12C (Homo sapiens (Human), UniProt P01116+P62937, G12C); test: Ras-Raf disruption/FRET/MOA assay (BRAF RBD, Cyclophilin A); format: biochemical; conditions: read-out: KRAS G12C FRET IC50
Outline: (§1)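 Measured: compound-facilitated Cyclophilin A:Ras complex blocking RAF RBD binding. Conditions: 12.5 nM Ras-GMPPNP, 50 nM BRAF RBD, 25 μM CypA, 3 h plus 1.5 h detection. Output: IC50 from TR-FRET ratio.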

KRAS G12D = KRAS G12D (Homo sapiens (Human), UniProt P01116+P62937, G12D); test: as above; format: biochemical; conditions: read-out: KRAS G12D FRET IC50
Outline: as §1

KRAS G13D = KRAS G13D (Homo sapiens (Human), UniProt P01116+P62937, G13D); test: as above; format: biochemical; conditions: read-out: KRAS G13D FRET data IC50
Outline: as §1

NRAS WT = NRAS WT (Homo sapiens (Human), UniProt P01111+P62937); test: as above; format: biochemical
Outline: (§2)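 First, 25 μM Cyclophilin A, 12.5 nM His6-Ras-GMPPNP and 50 nM GST-BRAF RBD are mixed with diluted compound at pH 7.3. Next, 3 h at 25° C. Then 10 nM anti-His Eu-W1024 plus 50 nM anti-GST allophycocyanin for 1.5 h before TR-FRET reading.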

KRAS Q61H = KRAS Q61H (Homo sapiens (Human), UniProt P01116+P62937, Q61H); test: as above; format: biochemical
Outline: as §1

KRAS G12V = KRAS G12V (Homo sapiens (Human), UniProt P01116+P62937, G12V); test: as above; format: biochemical; conditions: read-out: KRAS G12V FRET IC50
Outline: as §1

NRAS Q61R = NRAS Q61R (Homo sapiens (Human), UniProt P01111+P62937, Q61R); test: as above; format: biochemical
Outline: as §2

KRAS G13C = KRAS G13C (Homo sapiens (Human), UniProt P01116+P62937, G13C); test: as above; format: biochemical; conditions: read-out: KRAS G13C FRET IC50
Outline: as §1

KRAS G12S = KRAS G12S (Homo sapiens (Human), UniProt P01116+P62937, G12S); test: as above; format: biochemical; conditions: read-out: KRAS G12S FRET IC50
Outline: as §1

KRAS WT = KRAS WT (Homo sapiens (Human), UniProt P01116+P62937); test: as above; format: biochemical; conditions: read-out: KRAS WT FRET data IC50
Outline: as §1

NRAS Q61K = NRAS Q61K (Homo sapiens (Human), UniProt P01111+P62937, Q61K); test: as above; format: biochemical
Outline: as §2

NRAS G12C = NRAS G12C (Homo sapiens (Human), UniProt P01111+P62937, G12C); test: as above; format: biochemical; conditions: read-out: NRAS G12C FRET data IC50
Outline: as §2

[1] = target: K-Ras G12C(GMP-PNP) binding to BRAF RBD (Homo sapiens (Human), UniProt P01116+P62937, G12C); test: Disruption of BRAF RBD interaction with K-Ras (FRET / MOA assay), K-Ras G12C; format: biochemical; conditions: read-out: KRAS G12C FRET IC50
Outline: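 First, test compounds in a 10-point 3-fold series (30 μM final top) were incubated for 3 hours at 25° C with nucleotide-loaded Ras, cyclophilin A and a BRAF RBD construct. Next, Eu anti-His and allophycocyanin anti-GST detection reagents were added for 1.5 hours. Finally, IC50s were derived from loss of TR-FRET signal against DMSO.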

NCI-H358 (K-Ras G12C) = test: CellTiter-Glo cell viability assay, NCI-H358; format: cell-based, human; conditions: Homo sapiens, NCI-H358, 120 h, 5-day treatment; read-out: H358 Cell Viability assay data (K-Ras G12C, IC50)
Outline: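 Cells seeded, compound added directly to plates; day 5: plates to RT ~30 min, CellTiter-Glo luminescence; (sample/avg DMSO)*100; 4-parameter fit.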

[2] = tested on: Capan-1 cells (K-Ras G12V); test: CellTiter-Glo cell viability, Capan-1; format: cell-based, human; conditions: Homo sapiens, CAPAN-1, 120 h, K-Ras G12V, 5-day treatment; read-out: Capan-1 Cell Viability IC50
Outline: (§3)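 Cells seeded, compound dispensed straight into wells, 5-day exposure. Plates brought to room temperature ~30 min, CellTiter-Glo luminescence measured. Normalized to DMSO (%), 4-parameter logistic fit.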

[3] = tested on: NCI-H358 cells (K-Ras G12C); test: CellTiter-Glo cell viability, NCI-H358; format: cell-based, human; conditions: Homo sapiens, NCI-H358, 120 h, K-Ras G12C, 5-day treatment; read-out: H358 Cell Viability IC50
Outline: as §3

Chain of NRAS G12C (P01111 whole entry G12C): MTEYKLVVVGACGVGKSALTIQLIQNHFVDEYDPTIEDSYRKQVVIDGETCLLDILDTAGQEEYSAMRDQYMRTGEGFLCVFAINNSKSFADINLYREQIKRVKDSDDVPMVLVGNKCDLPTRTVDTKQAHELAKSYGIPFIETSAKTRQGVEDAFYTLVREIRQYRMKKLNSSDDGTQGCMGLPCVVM
Chain of NRAS G12C (P62937 whole entry): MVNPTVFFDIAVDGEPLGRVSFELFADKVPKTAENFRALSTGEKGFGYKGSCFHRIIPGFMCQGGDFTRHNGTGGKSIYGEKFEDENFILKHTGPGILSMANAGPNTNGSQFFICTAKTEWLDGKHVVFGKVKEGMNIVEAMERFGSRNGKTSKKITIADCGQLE
Chain of KRAS G12D (P01116 other isoform, or with tags, fused parts or gaps G12D): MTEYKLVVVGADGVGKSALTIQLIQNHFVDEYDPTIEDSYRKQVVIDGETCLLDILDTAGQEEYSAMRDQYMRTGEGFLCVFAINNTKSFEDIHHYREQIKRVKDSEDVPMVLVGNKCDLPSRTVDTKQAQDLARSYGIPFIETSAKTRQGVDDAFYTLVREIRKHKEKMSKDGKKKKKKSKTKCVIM
Chain of KRAS G12D (P62937 whole entry): as the sequence (P62937 whole entry) above
Chain of NRAS Q61K (P01111 whole entry Q61K): as the sequence (P01111 whole entry G12C) above, with C12G, Q61K counted along it
Chain of NRAS Q61K (P62937 whole entry): as the sequence (P62937 whole entry) above
Chain of KRAS Q61H (P01116 other isoform, or with tags, fused parts or gaps Q61H): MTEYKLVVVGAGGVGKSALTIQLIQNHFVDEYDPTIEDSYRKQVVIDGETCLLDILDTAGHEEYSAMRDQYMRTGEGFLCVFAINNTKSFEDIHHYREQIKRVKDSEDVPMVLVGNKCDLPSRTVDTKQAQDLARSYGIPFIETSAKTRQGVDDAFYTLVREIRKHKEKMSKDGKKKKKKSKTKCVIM
Chain of KRAS Q61H (P62937 whole entry): as the sequence (P62937 whole entry) above
Chain of KRAS G13D (P01116 other isoform, or with tags, fused parts or gaps G13D): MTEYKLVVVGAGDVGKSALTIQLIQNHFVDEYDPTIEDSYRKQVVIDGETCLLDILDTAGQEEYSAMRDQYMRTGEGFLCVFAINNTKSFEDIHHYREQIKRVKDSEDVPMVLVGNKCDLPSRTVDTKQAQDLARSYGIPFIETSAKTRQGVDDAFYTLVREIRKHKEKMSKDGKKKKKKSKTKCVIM
Chain of KRAS G13D (P62937 whole entry): as the sequence (P62937 whole entry) above
Chain of K-Ras G12C(GMP-PNP) binding to BRAF RBD (P01116 other isoform, or with tags, fused parts or gaps G12C): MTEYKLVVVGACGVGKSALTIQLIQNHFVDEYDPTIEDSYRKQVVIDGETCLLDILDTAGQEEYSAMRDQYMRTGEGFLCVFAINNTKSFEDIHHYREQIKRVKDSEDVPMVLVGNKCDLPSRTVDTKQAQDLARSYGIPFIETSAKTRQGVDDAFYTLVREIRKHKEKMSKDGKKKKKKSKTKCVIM
Chain of K-Ras G12C(GMP-PNP) binding to BRAF RBD (P62937 whole entry): as the sequence (P62937 whole entry) above
Chain of KRAS G12C (P01116-2 other isoform, or with tags, fused parts or gaps G12C): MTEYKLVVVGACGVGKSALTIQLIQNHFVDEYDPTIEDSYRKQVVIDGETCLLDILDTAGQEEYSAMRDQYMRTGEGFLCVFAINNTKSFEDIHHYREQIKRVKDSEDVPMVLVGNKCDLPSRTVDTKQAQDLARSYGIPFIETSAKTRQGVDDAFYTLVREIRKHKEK
Chain of KRAS G12C (P62937 whole entry): as the sequence (P62937 whole entry) above
Chain of NRAS Q61R (P01111 whole entry Q61R): as the sequence (P01111 whole entry G12C) above, with C12G, Q61R counted along it
Chain of NRAS Q61R (P62937 whole entry): as the sequence (P62937 whole entry) above
Chain of NRAS WT (P01111 whole entry): as the sequence (P01111 whole entry G12C) above, with C12G counted along it
Chain of NRAS WT (P62937 whole entry): as the sequence (P62937 whole entry) above
Chain of KRAS G12S (P01116 other isoform, or with tags, fused parts or gaps G12S): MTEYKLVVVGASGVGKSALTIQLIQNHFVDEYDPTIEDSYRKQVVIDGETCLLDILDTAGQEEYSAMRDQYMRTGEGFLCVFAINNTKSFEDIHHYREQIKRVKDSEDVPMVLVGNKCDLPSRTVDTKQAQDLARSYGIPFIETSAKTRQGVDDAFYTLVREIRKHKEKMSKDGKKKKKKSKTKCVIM
Chain of KRAS G12S (P62937 whole entry): as the sequence (P62937 whole entry) above
Chain of KRAS G12V (P01116 other isoform, or with tags, fused parts or gaps G12V): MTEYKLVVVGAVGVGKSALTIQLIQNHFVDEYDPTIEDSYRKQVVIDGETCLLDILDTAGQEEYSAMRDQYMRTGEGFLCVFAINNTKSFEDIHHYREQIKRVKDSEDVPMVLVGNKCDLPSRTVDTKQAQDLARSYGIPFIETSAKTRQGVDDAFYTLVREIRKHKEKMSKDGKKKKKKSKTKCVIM
Chain of KRAS G12V (P62937 whole entry): as the sequence (P62937 whole entry) above
Chain of KRAS WT (P01116 other isoform, or with tags, fused parts or gaps): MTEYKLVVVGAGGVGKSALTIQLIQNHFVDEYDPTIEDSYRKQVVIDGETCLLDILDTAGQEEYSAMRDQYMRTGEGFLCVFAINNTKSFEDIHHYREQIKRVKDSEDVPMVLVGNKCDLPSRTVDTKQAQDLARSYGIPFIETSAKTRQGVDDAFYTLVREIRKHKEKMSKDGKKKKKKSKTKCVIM
Chain of KRAS WT (P62937 whole entry): as the sequence (P62937 whole entry) above
Chain of KRAS G13C (P01116 other isoform, or with tags, fused parts or gaps G13C): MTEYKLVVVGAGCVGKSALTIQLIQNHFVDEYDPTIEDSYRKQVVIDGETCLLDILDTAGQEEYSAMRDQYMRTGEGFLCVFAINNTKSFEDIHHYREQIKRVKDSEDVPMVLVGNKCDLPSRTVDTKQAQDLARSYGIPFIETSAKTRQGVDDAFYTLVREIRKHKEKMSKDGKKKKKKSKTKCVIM
Chain of KRAS G13C (P62937 whole entry): as the sequence (P62937 whole entry) above

CCn1c(-c2cccnc2[C@H](C)OC)c2c3cc(ccc31)-c1csc(n1)C[C@H](NC(=O)[C@H](C(C)C)N(C)C(=O)N(C)C[C@H]1CCCN1C)C(=O)N1CCC[C@H](N1)C(=O)OCC(C)(C)C2 [Compound A473]
pIC50 (KRAS G12C): 6.00 to 7.00 | pIC50 (KRAS G12D): 5.00 to 6.00 | pIC50 (KRAS G13D): 6.00 to 7.00 | pIC50 (NRAS WT): 6.00 to 7.00 | pIC50 (KRAS Q61H): 6.00 to 7.00 | pIC50 (KRAS G12V): 5.00 to 6.00 | pIC50 (NRAS Q61R): 5.00 to 6.00 | pIC50 (KRAS G13C): 6.00 to 7.00 | pIC50 (KRAS G12S): 6.00 to 7.00 | pIC50 (KRAS WT): 6.00 to 7.00 | pIC50 (NRAS Q61K): 5.00 to 6.00 | pIC50 (NRAS G12C): 6.00 to 7.00 | pIC50 [1]: 6.00 to 7.00 | pIC50 (NCI-H358 (K-Ras G12C)): 7.00 to 8.00 | pIC50 [2]: 6.00 to 7.00

CCn1c(-c2cccnc2[C@H](C)OC)c2c3cc(ccc31)-c1csc(n1)C[C@H](NC(=O)[C@H](C(C)C)N(C)C(=O)N1CC[C@H]1CN(C)C)C(=O)N1CCC[C@H](N1)C(=O)OCC(C)(C)C2 [Compound A508]
pIC50 (KRAS G12C): 6.00 to 7.00 | pIC50 (KRAS G12D): 5.00 to 6.00 | pIC50 (KRAS G13D): 5.00 to 6.00 | pIC50 (NRAS WT): 6.00 to 7.00 | pIC50 (KRAS Q61H): 6.00 to 7.00 | pIC50 (KRAS G12V): 5.00 to 6.00 | pIC50 (NRAS Q61R): 5.00 to 6.00 | pIC50 (KRAS G13C): 6.00 to 7.00 | pIC50 (KRAS G12S): 6.00 to 7.00 | pIC50 (KRAS WT): 6.00 to 7.00 | pIC50 (NRAS Q61K): 5.00 to 6.00 | pIC50 (NRAS G12C): 6.00 to 7.00 | pIC50 [1]: 6.00 to 7.00 | pIC50 (NCI-H358 (K-Ras G12C)): 6.00 to 7.00 | pIC50 [3]: 6.00 to 7.00 | pIC50 [2]: 6.00 to 7.00

CCn1c(-c2cccnc2[C@H](C)OC)c2c3cc(ccc31)-c1csc(n1)C[C@H](NC(=O)[C@H](C(C)C)N(C)C(=O)N1CCN(C)[C@@H](c3ccccc3)C1)C(=O)N1CCC[C@H](N1)C(=O)OCC(C)(C)C2 [Compound A524]
pIC50 (KRAS G12C): 6.00 to 7.00 | pIC50 (KRAS G12D): 5.00 to 6.00 | pIC50 (KRAS G13D): 5.00 to 6.00 | pIC50 (NRAS WT): 6.00 to 7.00 | pIC50 (KRAS Q61H): 6.00 to 7.00 | pIC50 (KRAS G12V): 5.00 to 6.00 | pIC50 (NRAS Q61R): 5.00 to 6.00 | pIC50 (KRAS G13C): 6.00 to 7.00 | pIC50 (KRAS G12S): 5.00 to 6.00 | pIC50 (KRAS WT): 6.00 to 7.00 | pIC50 (NRAS Q61K): 6.00 to 7.00 | pIC50 (NRAS G12C): 6.00 to 7.00 | pIC50 [1]: 6.00 to 7.00 | pIC50 (NCI-H358 (K-Ras G12C)): 7.00 to 8.00 | pIC50 [3]: 6.00 to 7.00 | pIC50 [2]: 6.00 to 7.00

CCn1c(-c2cccnc2[C@H](C)OC)c2c3cc(ccc31)-c1csc(n1)C[C@H](NC(=O)[C@H](C(C)C)N(C)C(=O)N(C)[C@H]1CCN(C)C1)C(=O)N1CCC[C@H](N1)C(=O)OCC(C)(C)C2 [Compound A563]
pIC50 (KRAS G12C): 6.00 to 7.00 | pIC50 (KRAS G12D): 6.00 to 7.00 | pIC50 (KRAS G13D): 6.00 to 7.00 | pIC50 (NRAS WT): 6.00 to 7.00 | pIC50 (KRAS Q61H): 7.00 to 8.00 | pIC50 (KRAS G12V): 5.00 to 6.00 | pIC50 (NRAS Q61R): 6.00 to 7.00 | pIC50 (KRAS G13C): 6.00 to 7.00 | pIC50 (KRAS G12S): 6.00 to 7.00 | pIC50 (KRAS WT): 6.00 to 7.00 | pIC50 (NRAS Q61K): 6.00 to 7.00 | pIC50 (NRAS G12C): 6.00 to 7.00 | pIC50 [1]: 6.00 to 7.00 | pIC50 (NCI-H358 (K-Ras G12C)): 6.00 to 7.00 | pIC50 [3]: 7.00 to 8.00 | pIC50 [2]: 7.00 to 8.00

CCn1c(-c2cccnc2[C@H](C)OC)c2c3cc(ccc31)-c1csc(n1)C[C@H](NC(=O)[C@H](C(C)C)N(C)C(=O)N(C)C1CN(C)C1)C(=O)N1CCC[C@H](N1)C(=O)OCC(C)(C)C2 [Compound A611]
pIC50 (KRAS G12C): 6.00 to 7.00 | pIC50 (KRAS G12D): 6.00 to 7.00 | pIC50 (KRAS G13D): 6.00 to 7.00 | pIC50 (NRAS WT): 6.00 to 7.00 | pIC50 (KRAS Q61H): 6.00 to 7.00 | pIC50 (KRAS G12V): 5.00 to 6.00 | pIC50 (NRAS Q61R): 6.00 to 7.00 | pIC50 (KRAS G13C): 6.00 to 7.00 | pIC50 (KRAS G12S): 6.00 to 7.00 | pIC50 (KRAS WT): 6.00 to 7.00 | pIC50 (NRAS Q61K): 6.00 to 7.00 | pIC50 (NRAS G12C): 6.00 to 7.00 | pIC50 [3]: 6.00 to 7.00 | pIC50 [2]: 6.00 to 7.00

CCn1c(-c2cccnc2[C@H](C)OC)c2c3cc(ccc31)-c1cc(O)cc(c1)C[C@H](NC(=O)[C@H](C(C)C)N(C)C(=O)[C@@]1(F)CCN(C(=O)OC)C1)C(=O)N1CCC[C@H](N1)C(=O)OCC(C)(C)C2 [Compound A615]
pIC50 (KRAS G12C): 7.00 to 8.00 | pIC50 (KRAS G12D): 6.00 to 7.00 | pIC50 (KRAS G13D): 7.00 to 8.00 | pIC50 (NRAS WT): 7.00 to 8.00 | pIC50 (KRAS Q61H): 7.00 to 8.00 | pIC50 (KRAS G12V): 7.00 to 8.00 | pIC50 (NRAS Q61R): 6.00 to 7.00 | pIC50 (KRAS G13C): 7.00 to 8.00 | pIC50 (KRAS G12S): 7.00 to 8.00 | pIC50 (KRAS WT): 7.00 to 8.00 | pIC50 (NRAS Q61K): 6.00 to 7.00 | pIC50 (NRAS G12C): 7.00 to 8.00 | pIC50 [3]: 7.00 to 8.00 | pIC50 [2]: 7.00 to 8.00
